The text below walks through data of ChEMBL document CHEMBL1201862, “PubChem BioAssay data set” (2004).

Some test systems named below: A498; RPMI-8226; HL-60; HCT-116; SR; Malme-3M; A549; HOP-62; HCT-15; MDA-MB-435; BT-549; SW-620; IGROV-1; OVCAR-8; 786-0; ACHN; DU-145; K562; MCF7; SK-MEL-5.
Holding throughout (test): NCI-60 cell line screen, 48 h

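Tested at 5 concentrations; 48 h exposure; 96-well plates; endpoints linearly interpolated, else capped at highest concentration. GI50: concentration for 50% inhibition of growth.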 Active and inactive are the calls of the source. No stated cut-off is given here; in the data, active = GI50 up to about 1.1 µM and inactive = higher. Where a SMILES comes first, the peptide text is derived from it. [ ]: non-standard residue; d: D form. The star is where a group is joined. Bn2Val = CC(C)[C@@H](C(=O)*)N(Cc1ccccc1)Cc1ccccc1; NH(4-F-benzyl) = Fc1ccc(CN*)cc1; NMeV = CN[C@H](C(=O)O)C(C)C; dNMeA = CN[C@H](C)C(=O)O

Turning to `CC(C)[C@H](NC(=O)[C@H](C(C)C)N(Cc1ccccc1)Cc1ccccc1)C(=O)N(C)[C@H](C(=O)N1CCC[C@H]1C(=O)N(C)[C@H](C)C(=O)NCc1ccc(F)cc1)C(C)C` (Bn2Val-V[NMeV]P[dNMeA]-{NH(4-F-benzyl)}), the GI50 in the assay on A498 was 2.42 µM (inactive); with RPMI-8226, 3.27 µM (inactive); in the assay on HL-60, 2.54 µM (inactive); in the assay with HCT-116, 2.97 µM (inactive); in the assay on SR it was 2.14 µM (inactive); in the assay on Malme-3M, 3.63 µM (inactive). Moreover, the GI50 was 3.3 µM (inactive) in the assay with A549; 5.47 µM (inactive) in the assay on HOP-62; 3.79 µM in the assay with HCT-15; 3.67 µM (inactive) in the assay on MDA-MB-435; 4.06 µM (inactive) in the assay on BT-549; 4.25 µM (inactive) in the assay with SW-620. For the same compound, the GI50 with IGROV-1 was 3.19 µM (inactive); with OVCAR-8, 4.01 µM (inactive); with 786-0, 4.23 µM (inactive); with ACHN, 3.33 µM (inactive); with DU-145, 4.88 µM (inactive); with K562 it was 3.78 µM (inactive). Besides, the results for the GI50 in the assay on MCF7 and with SK-MEL-5 were 2.72 µM (inactive) and 2.22 µM (inactive), respectively.
With `CC(C)Cn1cnc2c(NCC(C)O)nc3ccccc3c21` (stereo not given), the GI50 in the assay with A498 was 60.8 µM (inactive); in the assay with RPMI-8226, > 100 µM (inactive); in the assay on HL-60, 37.5 µM (inactive); with HCT-116, 42.5 µM (inactive); in the assay with SR, 84.5 µM (inactive); in the assay with Malme-3M it was 74.3 µM (inactive). Also, the GI50 in the assay with A549 is > 100 µM (inactive); in the assay with HOP-62, > 100 µM (inactive); in the assay with HCT-15 it was 78.3 µM; in the assay on MDA-MB-435, > 100 µM (inactive); in the assay with BT-549 it was > 100 µM (inactive); with SW-620, > 100 µM (inactive). Besides, the GI50 is 36.8 µM (inactive) in the assay on IGROV-1; > 100 µM (inactive) in the assay on OVCAR-8; > 100 µM (inactive) in the assay on 786-0; 41.1 µM (inactive) with ACHN; 89.5 µM (inactive) with DU-145; 61.4 µM (inactive) in the assay with K562. For the same compound, the GI50 in the assay on MCF7 was > 100 µM (inactive); in the assay with SK-MEL-5, 70.6 µM (inactive).
As for `O=C(O)c1cccc(S(=O)(=O)NN2C(=O)CSC2c2ccccc2)c1` (stereo not given), the GI50 in the assay with A498 was > 100 µM (inactive); in the assay on RPMI-8226 it was 35.3 µM (inactive); in the assay with HL-60 it was 4.4 µM (inactive); in the assay on HCT-116, > 100 µM (inactive); with SR it was 32.9 µM (inactive); in the assay on Malme-3M, > 100 µM (inactive). For the same compound, the GI50 is > 100 µM (inactive) in the assay on A549; > 100 µM (inactive) with HOP-62; more than 100 µM in the assay with HCT-15; > 100 µM (inactive) in the assay on MDA-MB-435; > 100 µM (inactive) with BT-549; > 100 µM (inactive) in the assay with SW-620. Also, the GI50 in the assay with IGROV-1, in the assay with OVCAR-8, with 786-0, in the assay on ACHN, in the assay on DU-145 and in the assay with K562 was > 100 µM (inactive) each time. Further, the GI50 in the assay with MCF7 and in the assay on SK-MEL-5 was > 100 µM (inactive) throughout.
For the compound `CCOP(=O)(OCC)/C(C#N)=C/c1c[nH]c2ccccc12`, the GI50 was > 100 µM (inactive) with A498; 90.4 µM (inactive) in the assay with RPMI-8226; > 100 µM (inactive) with HL-60; > 100 µM (inactive) in the assay with HCT-116; > 100 µM (inactive) in the assay on SR; > 100 µM (inactive) in the assay on Malme-3M. Besides, the GI50 in the assay with A549 is > 100 µM (inactive); in the assay on HOP-62 it was > 100 µM (inactive); with HCT-15 it was more than 100 µM; in the assay with MDA-MB-435 it was > 100 µM (inactive); with BT-549, 57.9 µM (inactive); with SW-620 it was > 100 µM (inactive). Moreover, the GI50 in the assay with IGROV-1, with OVCAR-8, in the assay on 786-0, in the assay with ACHN, in the assay with DU-145 and in the assay on K562 was > 100 µM (inactive) throughout. Further, the GI50 with MCF7 and in the assay with SK-MEL-5 was > 100 µM (inactive) throughout.
As for `COc1ccc(CNC(=O)[C@H](Cc2ccc(O)cn2)NC(C)=O)cc1OC`, the GI50 in the assay with A498, in the assay on RPMI-8226, in the assay on HL-60, with HCT-116, in the assay on SR and with Malme-3M was > 100 µM (inactive) each time. Moreover, the GI50 is > 100 µM (inactive) in the assay with A549; > 100 µM (inactive) in the assay on HOP-62; more than 100 µM with HCT-15; > 100 µM (inactive) in the assay with MDA-MB-435; > 100 µM (inactive) with BT-549; > 100 µM (inactive) in the assay with SW-620. Also, the GI50 in the assay with IGROV-1, in the assay with OVCAR-8, with 786-0, with ACHN, in the assay with DU-145 and in the assay on K562 was > 100 µM (inactive) each time. Moreover, the GI50 with MCF7 and in the assay with SK-MEL-5 was > 100 µM (inactive) throughout.
Regarding `CCn1c2c(n(CC)c1=S)-c1c(n(CC)c(=S)n1CC)SSSS2`, the GI50 with A498 is 37.5 µM (inactive); with RPMI-8226 it was 2.82 µM (inactive); with HL-60 it was 2.9 µM (inactive); with HCT-116, 3.4 µM (inactive); in the assay with SR it was 1.69 µM (inactive); in the assay with Malme-3M, 2.83 µM (inactive). The GI50 with A549 is 36.7 µM (inactive); with HOP-62, > 100 µM (inactive); in the assay on HCT-15, 4.49 µM; in the assay on MDA-MB-435, 13.3 µM (inactive); in the assay on BT-549 it was 15.4 µM (inactive); in the assay on SW-620 it was 1.67 µM (inactive). In addition, the GI50 with IGROV-1 was 17.8 µM (inactive); with OVCAR-8 it was 8.77 µM (inactive); in the assay on 786-0 it was 16.7 µM (inactive); in the assay with ACHN, 5.02 µM (inactive); with DU-145, > 100 µM (inactive); in the assay on K562, 1.03 µM (active). Further, the GI50 in the assay with MCF7 is 16 µM (inactive); with SK-MEL-5, 27 µM (inactive).
As for `CC(C)(C)[Si](C)(C)OCC#C[C@@]1(O)CCCCC1CC(Sc1ccccc1)Sc1ccccc1` (stereo not given in full), the GI50 in the assay with A498 was 16.3 µM (inactive); in the assay with RPMI-8226, 15.3 µM (inactive); in the assay with HL-60 it was 18.8 µM (inactive); with HCT-116 it was 11.8 µM (inactive); in the assay on SR, 14.8 µM (inactive); in the assay on Malme-3M it was 16.1 µM (inactive). For the same compound, the GI50 with A549 was 14.9 µM (inactive); in the assay on HOP-62 it was 16.9 µM (inactive); in the assay with HCT-15 it was 14.9 µM; in the assay on MDA-MB-435, 15.7 µM (inactive); with BT-549, 19 µM (inactive); with SW-620, 15.1 µM (inactive). Further, the GI50 in the assay on IGROV-1 is 16.1 µM (inactive); in the assay on OVCAR-8 it was 16.5 µM (inactive); in the assay on 786-0, 13.5 µM (inactive); with ACHN, 14.4 µM (inactive); with DU-145, 15.8 µM (inactive); with K562 it was 14.2 µM (inactive). The GI50 in the assay with MCF7 was 10.2 µM (inactive); in the assay with SK-MEL-5, 15.7 µM (inactive).
As to `O=C(O)c1cc2ccccc2c(O)c1O`, the GI50 was 26.9 µM (inactive) in the assay with A498; > 52.2 µM (inactive) in the assay on RPMI-8226; 19.4 µM (inactive) in the assay with HL-60; 16.8 µM (inactive) in the assay with HCT-116; > 45.4 µM (inactive) in the assay on SR; 1.8 µM (inactive) in the assay on Malme-3M. In addition, the GI50 with A549 is 19.8 µM (inactive); with HOP-62, 18.9 µM (inactive); with HCT-15, 19.7 µM; in the assay with MDA-MB-435, 1.85 µM (inactive); in the assay on BT-549, 16.1 µM (inactive); in the assay on SW-620, 19.7 µM (inactive). The GI50 is 20.2 µM (inactive) with IGROV-1; 12.6 µM (inactive) with OVCAR-8; 14.3 µM (inactive) in the assay with 786-0; 16.9 µM (inactive) with ACHN; 18.3 µM (inactive) in the assay on DU-145; 8.09 µM (inactive) in the assay on K562. Moreover, the GI50 is 13.5 µM (inactive) with MCF7 and 2.92 µM (inactive) in the assay with SK-MEL-5.
As for `Nc1ncnc2c1nc(Cl)n2C1OC(CO)C(O)C1O` (stereo not given), the GI50 with A498 was 4.52 µM (inactive); in the assay on RPMI-8226 it was 1.44 µM (inactive); with HL-60 it was 0.181 µM (active); in the assay with HCT-116 it was 0.352 µM (active); with SR, 1.13 µM (inactive); in the assay on Malme-3M it was 27.2 µM (inactive). Besides, the GI50 in the assay on A549 is 0.991 µM (active); in the assay on HOP-62, 8.28 µM (inactive); in the assay with HCT-15, 0.283 µM; with MDA-MB-435, 2.21 µM (inactive); in the assay on BT-549 it was 3.15 µM (inactive); in the assay on SW-620, 1.55 µM (inactive). Besides, the GI50 with IGROV-1 was 0.653 µM (active); in the assay on OVCAR-8, 1.11 µM (active); in the assay on 786-0 it was 1.79 µM (inactive); in the assay with ACHN, 0.489 µM (active); in the assay on DU-145, 0.714 µM (active); in the assay on K562 it was 0.347 µM (active). The GI50 in the assay on MCF7 is 0.562 µM (active); with SK-MEL-5, 3.25 µM (inactive).
With `N#C[C@@]12CCCC(=O)[C@@H]1[C@H]1CCC[C@H]12`, the GI50 is 17.1 µM (inactive) with A498; 11 µM (inactive) in the assay with RPMI-8226; 8.22 µM (inactive) with HL-60; 15.5 µM (inactive) in the assay on HCT-116; 26.1 µM (inactive) in the assay with SR; 13.6 µM (inactive) in the assay with Malme-3M. The GI50 with A549 is 16.7 µM (inactive); in the assay on HOP-62 it was 15.2 µM (inactive); with HCT-15, 16.3 µM; in the assay on MDA-MB-435 it was 17.1 µM (inactive); in the assay with BT-549 it was 17.9 µM (inactive); in the assay with SW-620, 20.6 µM (inactive). The GI50 was 16.5 µM (inactive) with IGROV-1; 21.6 µM (inactive) in the assay on OVCAR-8; 14.7 µM (inactive) in the assay on 786-0; 17.7 µM (inactive) in the assay with ACHN; 14.9 µM (inactive) with DU-145; 17.7 µM (inactive) in the assay with K562. Also, the GI50 with MCF7 was 16.4 µM (inactive); in the assay on SK-MEL-5, 15.8 µM (inactive).
